Experimental data published in patent US5424204A, “Method for stabilizing glucose 6-phosphate dehydrogenase with hydroxylamines, aldehyde scavengers, dimethylthiocarbamoyl chloride or 2-(2-aminoethylamino) ethanol” (Kyowa Medex Co., Ltd., priority 1993, dated 1995).
Structures can show the parent of a compound that is named as a salt.

Test system: glucose 6-phosphate dehydrogenase
Test: Stabilization of glucose 6-phosphate dehydrogenase in a reagent for measuring the activity of creatine kinase (residual activity after storage)
Format: biochemical
Details: 10 mM additive in reagent solution 1 (pH 6.6), activity immediately after preparation = 100%; for Residual activity after 3 months (%): stored at 10° C. for 3 months; for Residual Activity after 12 months (%): stored at 10° C. for 12 months

Row | SMILES | Residual activity after 3 months (%) | Residual Activity after 12 months (%)
1 | Cl.NO [Compound I-1, hydroxylamine hydrochloride] | 100.2% | 85.9%
2 | NO.NO.O=S(=O)(O)O [Compound I-2, hydroxylamine sulfate] | 99.8% | 88.7%
3 | NO.O=C(O)C(=O)O [Compound I-3, hydroxylamine oxalate] | 98.2% | 89.2%
4 | Cl.NOCc1ccccc1 [Compound I-5, O-benzylhydroxylamine hydrochloride] | 96.8% | 78.9%
5 | O=C(c1ccccc1)N(O)c1ccccc1 [Compound I-6, N-benzoyl-N-phenylhydroxylamine] | 80.5% | 30.3%
6 | Cc1ccccc1N(O)C(=O)c1ccccc1 [Compound I-7, N-benzoyl-N-(2-methylphenyl)hydroxylamine] | 81.5% | 25.6%
7 | O=C(C=Cc1ccccc1)N(O)c1ccccc1 [Compound I-8, N-cinnamoyl-N-phenylhydroxylamine] | 90.4% | 44.5%
8 | CON [Compound I-10, O-methylhydroxylamine] | 99.7% | 82.3%
9 | Cc1cccc(N(O)C(=O)C=Cc2ccccc2)c1C [Compound I-11, N-cinnamoyl-N-2,3-xylylhydroxylamine] | 79.6% | 23.6%
10 | Cl.ONC1CCCCC1 [Compound I-13, N-cyclohexylhydroxylamine hydrochloride] | 92.1% | 80.2%
11 | NNC(=O)c1ccccc1 [II-1, benzoylhydrazine] | 100.1% | 87.6%
12 | NNC(=O)c1cccnc1 [II-4, nicotinic acid hydrazide] | 70.3% | 38.5%
13 | NC(=S)C(N)=S [II-17, dithiooxyamide] | 75.2% | 32.3%
14 | CN(C)C(=S)Cl [III, dimethylthiocarbamoyl chloride] | 80.3% | 43.2%

The remaining lines, values ahead:

Row | Residual activity after 3 months (%) | Residual Activity after 12 months (%) | SMILES
15 | 99.9% | 88.9% | Cl.NOCC(=O)O [Compound I-4, carboxymethoxylamine hydrochloride]
16 | 100.1% | 80.3% | CNO [Compound I-9, N-methylhydroxylamine]
17 | 75.5% | 22.2% | CC(C)(C)NO [Compound I-12, N-(tert-butyl)hydroxylamine]
18 | 88.5% | 65.2% | NNC(=O)C(=O)NN [II-3, oxalyldihydrazide]
19 | 75.4% | 28.3% | CCOC(=O)CNN [II-5, ethylhydrazinoaceate hydrochloride]
20 | 89.2% | 58.5% | Br.NNC1=NCCN1 [II-6, 2-hydrazino-2-imidazoline hydrobromide]
21 | 89.7% | 60.3% | NNC(=O)c1cc2ccccc2cc1O [II-7, 3-hydroxy-2-naphthoenic acid hydrazide]
22 | 99.8% | 86.5% | COC(=O)NN [II-8, methyl carbazate]
23 | 82.3% | 45.6% | CC(=O)NNC(N)=S [II-9, 1-acetylthiosemicarbazide]
24 | 102.2% | 88.3% | CCOC(=O)NN [II-12, ethyl carbazate]
25 | 90.2% | 62.1% | CCNC(=S)NN [II-13, 4-ethyl-3-thiosemicarbazide]
26 | 99.9% | 86.5% | NNC(=O)Nc1ccccc1 [II-14, 4-phenylsemicarbazide]
27 | 65.8% | 20.1% | CC(C)NNC(=O)c1ccncc1 [II-15, iproniazide]
28 | 79.8% | 41.5% | CC(C)=NNC(N)=S [II-16, acetone thiosemicarbazone]
29 | 98.7% | 81.1% | NCCNCCO [IV, 2-(2-aminoethylamino) ethanol]
